These results are taken from article PMC11317440, “Soloxolone para-methylanilide effectively suppresses aggressive phenotype of glioblastoma cells including TGF-β1-induced glial-mesenchymal transition in vitro and inhibits growth of U87 glioblastoma xenografts in mice” (Frontiers in Pharmacology, 2024).

Molecules are shown by their SMILES.

For series [1], the system named is EPNT-5 glioblastoma cells. Kind of series: MTT cell viability assay, EPNT-5 cells, 48 h. It counts as cell-based. The note with it: Mus musculus. As for the experimental part: (§1) Cells were seeded in quadruplicate in 96-well plates at 10,000 cells/well and allowed to adhere overnight. The medium was then replaced with serum-free DMEM containing increasing concentrations of soloxolone amides for 48 h. After incubation, 3-(4,5-dimethylthiazol-2-yl)-2,5-diphenyltetrazolium bromide (MTT dye) was added at a final concentration of 0.5 mg/mL and left for 2 h. The resulting formazan crystals were dissolved in DMSO and the optical density was measured at 570 nm using a Multiscan RC plate reader (Thermo LabSystems, Helsinki, Finland).

Series [2] deals with non-malignant human hFF3 fibroblasts. The series can be described thus: MTT cell viability assay, hFF3 fibroblasts, 48 h. Type of series: cell-based. The note with it: 7 at 400 nM. As for the experimental part: as §1
A general note: Tetrazolium assays rely on reduction of a dye to a coloured formazan, in cell work by metabolically active cells.

Series [3] concerns TGF-β1-induced U118 cells. The series can be described thus: Cell morphology (aspect ratio) of TGF-β1-induced U118 cells. Type of series: cell-based, human. The note with it: TGF-β1 50 ng/mL, 7 50 nM, 48 h. The method, then:
After seeding at a concentration of 5,000 cells/well in triplicate in 96-well plates and incubating overnight, U87 and U118 cells were exposed to TGF-β1 (50 ng/mL) and non-toxic concentrations of soloxolone amides for 48 h. An EVOS XL Core microscope with an integrated CMOS camera (Thermo Fisher Scientific, USA) was then used to examine cell morphology at ×20 magnification. Aspect ratio (AR) and area were quantified for at least 150 cells in each experimental group using ImageJ software (NIH, USA).

Series [4] has as its system TGF-β1-treated U118 cells. The series can be described thus: Adhesion of U118 cells to culture plastic (TrypLE treatment, MTT). The note with it: TGF-β1 50 ng/mL, 7 50 nM, 48 h. Type of series: cell-based, human. As for the experimental part: Adhesiveness of glioblastoma cells was assessed by two independent methods. First, cell adhesion to culture plastic was tested using a trypsin treatment assay, as previously described ([Sava et al., 2004]; [Mazuryk et al., 2015]; [van Dijk et al., 2017]). Briefly, U87 and U118 cells (10,000 cells per well of a 96-well plate, n = 4) were cultured with TGF-β1 (50 ng/mL) and non-toxic concentrations of soloxolone amides for 48 h and then treated with a 1:20 dilution of TrypLE Express (Gibco, USA) in PBS for 3 min at 37°C. Non-adherent cells were then removed by a triple PBS wash, and the remaining adherent cells were fixed with 4% formaldehyde and stained with crystal violet dye (0.1% w/v). Images were captured using the iBright 1,500 Imaging System (Invitrogen, USA), and the cell-occupied area was calculated using ImageJ. Alternatively, the number of adherent cells was quantified using the MTT assay.

Series [5] deals with TGF-β1-treated U118 cells. The series can be described thus: Scratch (wound closure) assay, U118 cells. It counts as cell-based, human. The note with it: U118, 7 50 nM, TGF-β1 50 ng/mL. The method, then:
For the scratch assay, U118 cells were seeded in triplicate in 24-well plates at a concentration of 300,000 cells/well and allowed to adhere overnight. The cells were then scratched with a 10 μL plastic pipette tip, washed with PBS, and covered with serum-free DMEM containing TGF-β1 (50 ng/mL) and compound 7 (50 nM). Scratches were photographed at 0, 24, and 48 h using an EVOS XL Core microscope. Wound closure was determined by estimating the scratch area at each time point using ImageJ software and normalizing to the scratch area at 0 h.

For series [6], the system named is U118 cells. The series can be described thus: Colony formation assay, U118 cells. It counts as cell-based. The settings on record: Homo sapiens, 240 h, 10 days. The method, then:
U87, U118 and EPNT-5 cells were seeded at a density of 200 cells/well in 96-well plates and treated with increasing concentrations of compound 7 (0–1,000 nM) dissolved in 10% FBS-containing DMEM (n = 5). On day 10, colonies were fixed with 4% formaldehyde and stained with crystal violet dye (0.1% w/v). Images were captured using the iBright 1,500 Imaging System (Invitrogen, USA) and the area of colonies with a minimum diameter of 100 µm was calculated using ImageJ. In the case of overlapping colonies, their total area was calculated. Finally, the area of the formed cell colonies was summed and normalized to the total colony area in the control.

The test system of the next series is U87 primary tumorspheres. The series can be described thus: Primary tumorsphere growth, U87. It counts as cell-based, human. The method, then:
For evaluation of spheroid growth, the bottom of the 96-well plate was covered with 1% agarose for non-adherent conditions. U87 cells (5,000 cells/well) were then seeded and allowed to form spheroids for 24 h, after which increasing concentrations of compound 7 (0–1,000 nM) were added (n = 8). Every other day of the 10-day experiment, fresh medium supplemented with compound 7 was added to half of the medium, and the spheroids were photographed using a camera-equipped ZEISS Primo Vert microscope (Carl Zeiss Microscopy GmbH, Jena, Germany). To assess the formation of secondary tumorspheres, cells were dissociated from primary tumorspheres after 4 days of compound 7 stimulation using TrypLE Express and were then seeded into agarose-coated 96-well plates (n = 8). On day 3, the resulting secondary spheroids were examined microscopically. Primary and secondary spheroid areas were quantified using ImageJ.

The test system of series [7] is aldehyde dehydrogenase (ALDH) activity in U87 primary tumorspheres. The series can be described thus: ALDH activity in U87 tumorspheres (AldeRed, flow cytometry). It counts as cell-based, human. The note with it: 7 at 50 and 100 nM, regardless of the dose, 4 days. The method, then: To assess ALDH activity, U87 cells were dissociated from spheroids using TrypLE Express after 4 days of induction with compound 7 (0–100 nM) (n = 3). Cells were then stained with the AldeRed ALDH Detection Assay (SCR150; EMD Millipore, Burlington, MA, USA) according to the manufacturer’s protocol. Experimental controls included U87 cells grown in 2D culture and cells treated with the ALDH inhibitor diethylaminobenzaldehyde (DEAB). Gates of ALDH-positive cells were set according to the inhibitory effect of DEAB on control cells.
After staining, 10,000 cells per sample were analyzed on a NovoCyte flow cytometer using NovoExpress software (ACEA Biosciences, Inc., USA).
For orientation: A flow cytometer gives signals particle by particle.

For series [8], the system named is U118 cells. Kind of series: MTT assay 72 h, 7 and TMZ alone and combined, synergy (HSA), U118. It counts as cell-based, human. As for the experimental part: The drug synergy score was calculated for the dose-response matrix according to the highest single-agent (HSA) model using the SynergyFinder + web application (https://www.synergyfinder.org/).
[9] abbreviates: U87 primary tumorspheres, 7 1,000 nM.

Broadly, the IC50 is the concentration at which inhibition is half-maximal. What is called inhibition is the share of the control response that was lost under treatment. Turning to `Cc1ccc(NC(=O)[C@@]2(C)CC[C@]3(C)CC[C@]4(C)[C@H](C(=O)C=C5[C@@]6(C)C=C(C#N)C(=O)C(C)(C)C6CC[C@]54C)[C@@H]3C2)cc1` (some centres unmarked) [compound 7, N-p-tolyl-2-cyano-3,12-dioxo-18βH-olean-9(11),1(2)-dien-30-amide], the IC50 came out at 257 nM in [1] and 169 nM in the series on U118 cells [8] (Homo sapiens, MTT). Further, the “death of hFF3 cells” value in series [2] is recorded as “about 21%”. Moreover, in series [3], the “shape (aspect ratio) of TGF-β1-induced U118 cells” value was “restored the shape of TGF-β1-induced cells to that of the control cells”. The “TGF-β1-induced decrease in U118 cell adhesion to culture plastic” value in series [4] was “effectively reversed”. Further, the “effect on TGF-β1-enhanced wound closure at 24 h” value in series [5] (24 h) was “completely reversed”. The “reduction of the effect of TGF-β1 on wound closure at 48 h” value in [5] (48 h) was determined as 34%. This compound also had an inhibition at 0.05 µM in the series on U118 cells [6] (U118, 7 50 nM) of 26.8%. In the series with U118 cells [6] (U118, 7 100 nM), this compound returned an inhibition at 0.1 µM of 42.8%. For the same compound, the “increase of spheroid growth compared to control” value in the series with U87 primary tumorspheres (U87 primary tumorspheres, 7 50 nM, p-value <0.05) is reported as 21%; in the series on U87 primary tumorspheres (U87 primary tumorspheres, 7 100 nM, not statistically significant), 10.4%. The spheroid growth result in the series with U87 primary tumorspheres (U87 primary tumorspheres, 7 450 nM) is “stopping it after 4 days”; in the series with U87 primary tumorspheres (setting [9]), “completely blocking it”. In the series with U87 primary tumorspheres (setting [9]), the “reduction of tumorsphere size compared to control by day 10” value stood at 28.6%. In addition, the “concentration causing a large-scale reduction of spheroids” value in the series on U87 primary tumorspheres (U87 tumorspheres) amounted to 1 µM. For the same compound, in series [7], the “reduction of the number of ALDH+ cells compared to the control” value was determined as 2.3 fold. Also, the “reduction of the cytotoxic effect by NAC” value with U118 cells [8] (U118, NAC 2 mM, TMZ 125 μM, 7 100 nM) is recorded as 80.3%.
